| Structure (SMILES) | melting point [°C] |
| --- | --- |
| Cc1cc(Nc2ccnc(Nc3ccc(C(=O)N(C)C4CCCN(CCCC(F)(F)F)C4)cc3)n2)ccc1F (centres unmarked) [Example 2, 4-[4-(4-Fluoro-3-methylphenylamino)pyrimidin-2-ylamino]-N-methyl-N-[1-(4,4,4-trifluorobutyl)piperidin-3-yl]benzamide] | 100 to 110 |
| CN(C(=O)c1ccc(Nc2nccc(Nc3ccc(F)cc3)n2)cc1)C1CCN2CCCC2C1 (centres unmarked) [Example 7] | 230 to 235 |
| CN(C(=O)c1ccc(Nc2nccc(Nc3ccc(C(F)(F)F)cc3)n2)cc1)C1CCOCC1 [Example 5, N-Methyl-N-(tetrahydropyran-4-yl)-4-[4-(4-(trifluoromethyl)phenylamino)pyrimidin-2-ylamino]benzamide] | 254 to 256 |
| CN1CCC(N(C)C(=O)c2ccc(Nc3nccc(Nc4ccc(C(F)(F)F)cc4)n3)cc2)CC1 [Example 4, N-Methyl-N-(1-methylpiperidin-4-yl)-4-[4-(4-(trifluoromethyl)phenylamino)pyrimidin-2-ylamino]benzamide] | 238 to 244 |
| Cc1cc(Nc2ccnc(Nc3ccc(C(=O)N(C)C4CCCN(Cc5csnn5)C4)cc3)n2)ccc1F (centres unmarked) [Example 3, 4-[4-(4-Fluoro-3-methylphenylamino)pyrimidin-2-ylamino]-N-methyl-N-[1-(1,2,3-thiadiazol-4-ylmethyl)piperidin-3-yl]benzamide] | 125 to 130 |
